In ChEMBL document CHEMBL1201862, “PubChem BioAssay data set” (2004):
Activity calls are given as the source filed them.

Columns and labels:
[1] = fluconazole-exposed Candida albicans growth modulators – fluorescence, retest, confirmation (AID 2467); format: functional, cell-based
[2] = NIH-3T3 fibroblast cytotoxicity, dose response, cytotoxicity control, cell-based, fluorescence, Alamar Blue, secondary assay (AID 2327); format: functional;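 also: NIH-3T3 mouse fibroblasts cultured with fluconazole at 8 µg/mL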
[3] = test system: Vero; assay: cells; format: functional; conditions: Chlorocebus sabaeus
[4] = Luminescent dose response cell-based high throughput screening assay for inhibitors of the Janus kinase 2 mutant JAK2V617F. [Related pubchem assays: 1446 (Primary screen.), 1521 (Confirmation assay.), 1486 (Counter screen.)]; format: functional
[5] = M. tuberculosis H37Rv growth inhibitors, H37Rv strain (AID 1626); format: functional
[6] = HPDE-C7 pancreatic duct cell viability loss – fluorescence, HTS (AID 430); format: functional, cell-based; conditions: Homo sapiens
[7] = viability loss of HPDE-C7K cells – cell-based, fluorescence, HTS, primary screen (AID 431); format: functional; conditions: Homo sapiens
[8] = target: Estrogen receptor beta (Homo sapiens, UniProt Q92731);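 also: recombinant ER-beta bound to coactivator SRC1 peptide in presence of estradiol agonist; inhibitors block coactivator peptide binding and lower the FRET signal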
Chain of Estrogen receptor beta (Q92731 whole entry, the tested form may be a part): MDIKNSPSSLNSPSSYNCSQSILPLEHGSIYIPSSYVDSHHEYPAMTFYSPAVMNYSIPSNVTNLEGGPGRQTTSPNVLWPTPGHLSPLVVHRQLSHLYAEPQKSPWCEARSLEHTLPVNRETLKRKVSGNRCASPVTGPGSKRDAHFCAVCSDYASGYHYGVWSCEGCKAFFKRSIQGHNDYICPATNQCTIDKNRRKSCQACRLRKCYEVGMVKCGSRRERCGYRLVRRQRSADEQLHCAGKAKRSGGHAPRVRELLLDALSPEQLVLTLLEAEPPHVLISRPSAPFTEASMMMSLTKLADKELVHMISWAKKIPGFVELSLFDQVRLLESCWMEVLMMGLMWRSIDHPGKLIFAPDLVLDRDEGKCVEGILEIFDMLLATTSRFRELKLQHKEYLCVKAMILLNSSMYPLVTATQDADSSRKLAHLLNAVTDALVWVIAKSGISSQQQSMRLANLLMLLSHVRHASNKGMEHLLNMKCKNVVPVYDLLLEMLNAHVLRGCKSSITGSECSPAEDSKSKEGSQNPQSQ

[9] = target: T1, Polyadenylate-binding protein 1 (Homo sapiens, UniProt P11940); assay: MLLE domain peptide-binding blockers, IC50 – biochemical, fluorescence polarization, FITC-PAM2 peptide, dose response (AID 602259); format: functional; conditions: read-out: IC50_Mean
T1 sequence (P11940 whole entry, the tested form may be a part): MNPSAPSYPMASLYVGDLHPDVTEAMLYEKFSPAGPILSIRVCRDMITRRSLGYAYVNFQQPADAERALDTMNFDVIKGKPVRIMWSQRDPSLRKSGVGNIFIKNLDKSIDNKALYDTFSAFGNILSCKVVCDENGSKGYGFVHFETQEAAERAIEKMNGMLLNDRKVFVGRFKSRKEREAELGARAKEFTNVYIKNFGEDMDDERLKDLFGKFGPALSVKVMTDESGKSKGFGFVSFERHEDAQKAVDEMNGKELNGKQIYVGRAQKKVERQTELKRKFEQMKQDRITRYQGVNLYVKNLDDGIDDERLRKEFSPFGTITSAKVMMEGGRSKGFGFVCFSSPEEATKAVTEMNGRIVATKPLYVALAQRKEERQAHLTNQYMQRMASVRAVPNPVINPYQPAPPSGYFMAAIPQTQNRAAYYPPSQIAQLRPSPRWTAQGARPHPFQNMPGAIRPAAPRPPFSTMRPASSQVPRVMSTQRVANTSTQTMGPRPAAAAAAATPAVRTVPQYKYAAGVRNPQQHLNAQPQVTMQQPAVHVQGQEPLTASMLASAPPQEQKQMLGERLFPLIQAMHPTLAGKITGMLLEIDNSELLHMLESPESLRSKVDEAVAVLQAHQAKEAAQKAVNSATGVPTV

[10] = target: Nonstructural protein 1 (Influenza A virus, UniProt Q194T2); format: functional, Influenza A virus (A/California/07/2009(H1N1))
Chain of Nonstructural protein 1 (Q194T2 whole entry): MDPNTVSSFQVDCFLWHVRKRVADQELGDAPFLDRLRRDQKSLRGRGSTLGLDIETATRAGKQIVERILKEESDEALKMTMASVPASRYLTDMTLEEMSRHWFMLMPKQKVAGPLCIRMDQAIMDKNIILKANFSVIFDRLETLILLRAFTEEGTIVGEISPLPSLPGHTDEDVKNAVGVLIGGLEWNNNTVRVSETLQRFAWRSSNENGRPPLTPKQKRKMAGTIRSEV

[11] = target: T1, Polyadenylate-binding protein 1; assay: MLLE binding blockers, Cy5 peptide tracer – biochemical, fluorescence polarization, Cy5-PAM2 peptide, secondary, miRNA deadenylation inhibitor project, dose response (AID 602260); format: functional; conditions: read-out: IC50_Mean
[12] = target: Prothrombin (Homo sapiens, UniProt P00734); assay: Thrombin 1536 HTS Dose Response Confirmation. [Related pubchem assays: 1046 (Thrombin 1536 HTS; hits were confirmed in this assay)]; format: functional
[13] = target: Mitogen-activated protein kinase 10 (Homo sapiens, UniProt P53779); assay: Dose response biochemical screening assay for inhibitors of c-Jun N-Terminal Kinase 3 (JNK3). [Related pubchem assays: 746 ]
Chain of Mitogen-activated protein kinase 10 (P53779 whole entry): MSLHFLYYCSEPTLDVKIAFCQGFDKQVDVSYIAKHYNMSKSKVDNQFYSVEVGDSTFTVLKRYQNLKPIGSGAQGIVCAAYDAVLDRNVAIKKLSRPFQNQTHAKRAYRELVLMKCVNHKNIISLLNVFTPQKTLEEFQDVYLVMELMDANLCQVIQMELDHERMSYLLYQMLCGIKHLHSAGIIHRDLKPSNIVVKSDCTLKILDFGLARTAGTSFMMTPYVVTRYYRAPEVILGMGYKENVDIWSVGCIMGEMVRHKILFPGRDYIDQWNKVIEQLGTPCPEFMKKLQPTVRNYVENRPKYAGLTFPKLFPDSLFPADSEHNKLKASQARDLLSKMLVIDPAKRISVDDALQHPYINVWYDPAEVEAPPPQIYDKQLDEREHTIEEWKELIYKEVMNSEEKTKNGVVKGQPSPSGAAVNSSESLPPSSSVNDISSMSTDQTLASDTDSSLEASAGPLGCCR

[14] = cells; format: functional
[15] = target: Induced myeloid leukemia cell differentiation protein Mcl-1 (Homo sapiens, UniProt Q07820); format: functional
Chain of Induced myeloid leukemia cell differentiation protein Mcl-1 (Q07820 whole entry): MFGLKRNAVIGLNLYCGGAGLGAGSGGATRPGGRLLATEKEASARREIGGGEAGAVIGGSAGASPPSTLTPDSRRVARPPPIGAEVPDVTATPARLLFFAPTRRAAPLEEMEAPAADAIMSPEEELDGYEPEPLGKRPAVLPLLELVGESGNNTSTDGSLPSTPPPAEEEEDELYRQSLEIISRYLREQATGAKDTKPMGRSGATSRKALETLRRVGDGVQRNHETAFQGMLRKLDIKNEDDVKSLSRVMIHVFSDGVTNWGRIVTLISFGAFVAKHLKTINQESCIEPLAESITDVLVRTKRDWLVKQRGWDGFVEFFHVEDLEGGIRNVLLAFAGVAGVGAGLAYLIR

[16] = target: Genome polyprotein (dengue virus type 2, UniProt P29990); assay: flavivirus cap methylation enzyme inhibition – biochemical, confirmation dose response, primary screen (AID 588689); format: functional
Chain of Genome polyprotein (P29990 2492-3391 limits assumed): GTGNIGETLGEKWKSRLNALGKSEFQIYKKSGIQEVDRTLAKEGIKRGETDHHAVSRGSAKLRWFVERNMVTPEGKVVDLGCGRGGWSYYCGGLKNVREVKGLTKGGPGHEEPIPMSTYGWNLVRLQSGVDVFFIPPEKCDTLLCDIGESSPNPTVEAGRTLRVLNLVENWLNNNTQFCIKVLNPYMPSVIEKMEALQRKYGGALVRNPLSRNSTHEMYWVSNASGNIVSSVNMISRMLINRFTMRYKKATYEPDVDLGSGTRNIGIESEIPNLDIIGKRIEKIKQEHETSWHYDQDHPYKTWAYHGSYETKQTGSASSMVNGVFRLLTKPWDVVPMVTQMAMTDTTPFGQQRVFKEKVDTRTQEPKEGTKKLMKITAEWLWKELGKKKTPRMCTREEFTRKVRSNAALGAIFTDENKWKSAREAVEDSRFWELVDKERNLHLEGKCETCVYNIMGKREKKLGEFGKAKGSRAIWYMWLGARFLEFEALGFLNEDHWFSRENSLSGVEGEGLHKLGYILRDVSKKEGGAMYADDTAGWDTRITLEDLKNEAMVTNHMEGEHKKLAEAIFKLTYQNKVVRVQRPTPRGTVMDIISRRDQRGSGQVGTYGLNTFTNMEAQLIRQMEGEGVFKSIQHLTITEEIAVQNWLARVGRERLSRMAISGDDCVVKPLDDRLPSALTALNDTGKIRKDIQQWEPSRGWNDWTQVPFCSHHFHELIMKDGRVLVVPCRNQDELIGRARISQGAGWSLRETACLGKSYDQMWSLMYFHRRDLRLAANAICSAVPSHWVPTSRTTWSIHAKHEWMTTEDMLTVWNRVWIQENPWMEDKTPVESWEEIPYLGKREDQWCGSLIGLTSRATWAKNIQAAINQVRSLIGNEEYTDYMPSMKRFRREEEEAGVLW

[17] = target: Beta-galactosidase (Escherichia coli, UniProt Q8VNN2); assay: detection-enzyme interference by beta-gal modulators – biochemical, E. coli enzyme, set 3, artefact control for CCR6 antagonist project, dose response (AID 504712); format: functional
Chain of Beta-galactosidase (Q8VNN2 whole entry): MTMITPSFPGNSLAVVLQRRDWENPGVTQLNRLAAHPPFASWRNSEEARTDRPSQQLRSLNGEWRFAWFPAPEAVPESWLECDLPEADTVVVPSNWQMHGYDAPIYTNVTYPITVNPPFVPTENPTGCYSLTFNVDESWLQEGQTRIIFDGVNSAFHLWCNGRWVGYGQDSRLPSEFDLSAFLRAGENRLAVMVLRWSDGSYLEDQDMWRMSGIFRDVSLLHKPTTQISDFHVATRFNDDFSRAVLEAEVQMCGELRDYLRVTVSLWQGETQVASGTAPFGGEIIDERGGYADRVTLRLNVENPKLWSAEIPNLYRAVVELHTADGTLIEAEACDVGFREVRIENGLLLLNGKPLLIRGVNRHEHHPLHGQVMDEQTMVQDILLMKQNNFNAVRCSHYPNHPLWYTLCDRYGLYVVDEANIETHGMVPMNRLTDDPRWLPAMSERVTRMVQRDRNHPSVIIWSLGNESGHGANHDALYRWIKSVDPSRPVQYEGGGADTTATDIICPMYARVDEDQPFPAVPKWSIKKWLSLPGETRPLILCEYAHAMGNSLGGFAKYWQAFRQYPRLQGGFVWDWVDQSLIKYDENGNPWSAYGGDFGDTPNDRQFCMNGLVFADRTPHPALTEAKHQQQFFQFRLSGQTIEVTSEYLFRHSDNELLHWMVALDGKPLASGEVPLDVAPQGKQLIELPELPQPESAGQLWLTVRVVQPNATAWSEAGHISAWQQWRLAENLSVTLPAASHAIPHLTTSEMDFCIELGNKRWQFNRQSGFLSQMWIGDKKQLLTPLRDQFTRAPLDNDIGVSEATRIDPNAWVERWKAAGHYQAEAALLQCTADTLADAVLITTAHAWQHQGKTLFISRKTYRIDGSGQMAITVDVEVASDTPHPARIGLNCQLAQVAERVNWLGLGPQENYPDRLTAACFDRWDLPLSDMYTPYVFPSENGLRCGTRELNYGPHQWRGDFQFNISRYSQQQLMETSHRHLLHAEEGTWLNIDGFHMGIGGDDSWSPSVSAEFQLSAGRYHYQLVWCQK

[18] = test system: Vero; assay: viability of Vero cells under compound – cytotoxicity control for flavivirus capping enzyme inhibitors (AID 588742); format: functional; conditions: Chlorocebus sabaeus
[19] = target: T2, Hexokinase HKDC1 (Homo sapiens, UniProt Q2TB90); assay: inhibition of HKDC1 glucose phosphorylation – biochemical, W721R variant, dose response (AID 504729); format: functional
T2 sequence (Q2TB90 whole entry): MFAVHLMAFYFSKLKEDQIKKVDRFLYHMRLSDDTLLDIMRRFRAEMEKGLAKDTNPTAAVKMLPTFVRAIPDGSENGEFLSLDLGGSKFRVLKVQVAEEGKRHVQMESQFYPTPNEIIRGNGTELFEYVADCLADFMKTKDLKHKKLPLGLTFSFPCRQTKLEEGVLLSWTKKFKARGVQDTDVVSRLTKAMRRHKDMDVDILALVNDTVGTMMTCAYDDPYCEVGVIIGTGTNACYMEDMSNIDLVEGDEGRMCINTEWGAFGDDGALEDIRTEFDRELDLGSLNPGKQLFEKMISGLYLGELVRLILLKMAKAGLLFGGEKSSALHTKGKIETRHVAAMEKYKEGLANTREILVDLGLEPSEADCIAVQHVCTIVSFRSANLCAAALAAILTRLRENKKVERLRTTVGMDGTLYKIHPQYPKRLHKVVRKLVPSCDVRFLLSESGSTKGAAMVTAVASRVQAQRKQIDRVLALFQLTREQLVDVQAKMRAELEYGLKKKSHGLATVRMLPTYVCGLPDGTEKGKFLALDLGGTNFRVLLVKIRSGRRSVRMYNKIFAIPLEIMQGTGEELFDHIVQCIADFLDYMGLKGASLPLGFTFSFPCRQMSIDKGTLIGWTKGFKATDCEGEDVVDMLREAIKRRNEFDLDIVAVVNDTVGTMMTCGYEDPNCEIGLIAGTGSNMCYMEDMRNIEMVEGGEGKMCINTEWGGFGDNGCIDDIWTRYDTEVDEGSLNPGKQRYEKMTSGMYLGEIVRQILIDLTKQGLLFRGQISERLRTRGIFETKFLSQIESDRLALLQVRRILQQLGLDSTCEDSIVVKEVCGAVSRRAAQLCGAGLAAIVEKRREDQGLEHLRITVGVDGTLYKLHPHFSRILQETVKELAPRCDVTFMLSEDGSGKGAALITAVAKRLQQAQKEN

[20] = target: T3, Estrogen receptor (Homo sapiens, UniProt P03372);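 also: potency for inhibiting coactivator peptide recruitment to the receptor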
T3 sequence (P03372 whole entry): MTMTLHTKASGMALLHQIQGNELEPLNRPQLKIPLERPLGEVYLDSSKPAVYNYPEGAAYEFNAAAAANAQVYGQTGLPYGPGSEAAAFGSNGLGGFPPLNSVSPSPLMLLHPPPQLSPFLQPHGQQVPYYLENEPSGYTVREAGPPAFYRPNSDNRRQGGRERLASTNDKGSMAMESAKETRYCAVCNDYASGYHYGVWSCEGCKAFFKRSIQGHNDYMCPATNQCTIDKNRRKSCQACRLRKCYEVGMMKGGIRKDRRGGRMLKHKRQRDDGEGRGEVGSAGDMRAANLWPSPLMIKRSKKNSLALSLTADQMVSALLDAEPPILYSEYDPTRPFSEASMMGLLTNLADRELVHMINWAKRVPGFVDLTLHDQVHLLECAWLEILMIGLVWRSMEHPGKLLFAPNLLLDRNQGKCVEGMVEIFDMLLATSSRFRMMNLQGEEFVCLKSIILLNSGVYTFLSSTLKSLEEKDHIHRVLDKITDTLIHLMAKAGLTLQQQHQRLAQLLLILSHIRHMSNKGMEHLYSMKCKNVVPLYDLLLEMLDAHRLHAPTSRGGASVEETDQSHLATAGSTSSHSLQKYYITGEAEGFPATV

[21] = target: T4, Heat shock factor protein 1 (Mus musculus, UniProt P38532); assay: enhancement of HSF1-driven luciferase signal – cell-based, NIH3T3, luminescence, dose retest, confirmation (AID 435004); format: functional;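 also: stress induced by proteasome inhibitor MG132 added 30 min after compound; luciferase reporter driven by HSF1 response element in NIH3T3 cells; actives raise luminescence as potentiators of the MG132 stress response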
T4 sequence (P38532 whole entry): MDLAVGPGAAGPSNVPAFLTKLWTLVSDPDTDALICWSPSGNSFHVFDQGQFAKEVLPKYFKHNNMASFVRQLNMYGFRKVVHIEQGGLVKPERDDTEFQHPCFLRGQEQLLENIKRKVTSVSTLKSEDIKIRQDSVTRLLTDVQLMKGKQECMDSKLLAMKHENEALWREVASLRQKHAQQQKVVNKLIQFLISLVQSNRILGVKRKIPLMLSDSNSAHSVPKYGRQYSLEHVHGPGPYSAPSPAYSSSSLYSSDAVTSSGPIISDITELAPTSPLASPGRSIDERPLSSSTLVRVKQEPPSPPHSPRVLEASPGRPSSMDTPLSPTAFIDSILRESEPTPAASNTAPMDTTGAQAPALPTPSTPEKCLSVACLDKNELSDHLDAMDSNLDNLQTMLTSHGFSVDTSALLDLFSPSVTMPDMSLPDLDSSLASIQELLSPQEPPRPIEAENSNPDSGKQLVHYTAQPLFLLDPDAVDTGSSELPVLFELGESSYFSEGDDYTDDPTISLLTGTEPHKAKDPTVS

[22] = target: T5, Replicative DNA helicase DnaB (Mycobacterium tuberculosis, UniProt P9WMR3); assay: DnaB intein splicing inhibitors, dose response, biochemical, cell-free fluorescence (AID 449749); format: functional
T5 sequence (P9WMR3 whole entry): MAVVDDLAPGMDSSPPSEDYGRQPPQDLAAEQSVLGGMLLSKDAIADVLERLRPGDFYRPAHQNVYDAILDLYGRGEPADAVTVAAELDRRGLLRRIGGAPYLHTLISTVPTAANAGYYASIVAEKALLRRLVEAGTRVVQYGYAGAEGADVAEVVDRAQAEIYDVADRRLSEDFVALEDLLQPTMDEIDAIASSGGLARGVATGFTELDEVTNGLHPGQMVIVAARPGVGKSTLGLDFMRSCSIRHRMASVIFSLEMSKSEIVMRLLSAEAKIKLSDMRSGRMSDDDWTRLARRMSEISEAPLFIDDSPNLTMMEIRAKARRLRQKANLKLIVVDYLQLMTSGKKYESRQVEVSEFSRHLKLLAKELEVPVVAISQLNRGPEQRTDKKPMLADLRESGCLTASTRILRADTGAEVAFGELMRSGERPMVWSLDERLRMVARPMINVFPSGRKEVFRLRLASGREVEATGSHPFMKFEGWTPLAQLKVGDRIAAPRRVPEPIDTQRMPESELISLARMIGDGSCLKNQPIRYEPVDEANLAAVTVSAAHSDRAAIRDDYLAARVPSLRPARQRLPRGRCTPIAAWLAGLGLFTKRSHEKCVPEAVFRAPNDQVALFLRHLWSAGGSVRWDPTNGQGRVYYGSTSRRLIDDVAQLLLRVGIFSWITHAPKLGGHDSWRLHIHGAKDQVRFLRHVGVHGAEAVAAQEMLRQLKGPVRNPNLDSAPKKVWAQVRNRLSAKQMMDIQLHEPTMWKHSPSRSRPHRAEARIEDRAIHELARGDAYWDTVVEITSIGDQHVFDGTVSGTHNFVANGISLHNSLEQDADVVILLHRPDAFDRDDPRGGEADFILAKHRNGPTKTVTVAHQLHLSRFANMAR

[23] = target: T6, Protein RecA (Mycobacterium tuberculosis, UniProt P9WHJ3); assay: Fluorescence Cell-Free Homogeneous Dose Retest to Identify Inhibitors of RecA-Intein Splicing Activity. [Related pubchem assays (depositor defined):AID2097, AID2223, AID489010, AID492950]; format: functional
T6 sequence (P9WHJ3 whole entry): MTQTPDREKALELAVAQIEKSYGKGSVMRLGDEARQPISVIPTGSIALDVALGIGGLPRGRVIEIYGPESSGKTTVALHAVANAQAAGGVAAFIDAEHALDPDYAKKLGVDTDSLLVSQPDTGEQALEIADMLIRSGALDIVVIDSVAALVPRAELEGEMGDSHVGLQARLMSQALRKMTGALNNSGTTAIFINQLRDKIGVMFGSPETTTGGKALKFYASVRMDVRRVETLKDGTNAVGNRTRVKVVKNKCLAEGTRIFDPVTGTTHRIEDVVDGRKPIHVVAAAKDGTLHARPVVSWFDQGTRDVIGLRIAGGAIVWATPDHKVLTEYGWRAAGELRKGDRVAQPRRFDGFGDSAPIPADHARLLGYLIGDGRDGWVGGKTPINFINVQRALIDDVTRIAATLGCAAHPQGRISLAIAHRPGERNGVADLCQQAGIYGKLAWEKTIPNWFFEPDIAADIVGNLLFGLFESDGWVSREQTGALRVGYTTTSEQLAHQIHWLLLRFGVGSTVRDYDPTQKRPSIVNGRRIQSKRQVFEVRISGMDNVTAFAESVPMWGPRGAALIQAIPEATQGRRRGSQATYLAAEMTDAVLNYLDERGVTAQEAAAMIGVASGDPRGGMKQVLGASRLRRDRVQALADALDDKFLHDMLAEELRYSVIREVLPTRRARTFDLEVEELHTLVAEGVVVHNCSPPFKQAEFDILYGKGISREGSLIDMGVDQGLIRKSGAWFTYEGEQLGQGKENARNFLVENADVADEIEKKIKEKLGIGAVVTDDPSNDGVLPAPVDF

## COc1ccccc1C(C[N+](=O)[O-])c1c(N)n(C)c(=O)n(C)c1=O (stereo not given)
[1]
  EC50: 6.01 µM (active)
[2]
  EC50: 9.19 µM (active)
[3]
  CC50: 9.01 µM (active)
[4]
  IC50: 1.61 µM (active)

## Cc1ccccc1N1C(=O)NC(=O)/C(=C/Nc2ccc3c(c2)OCO3)C1=O
[5]
  IC50: > 100 µM (active)

## Cc1ccc(S(=O)(=O)c2cc3c(=O)n4ccccc4nc3n(Cc3ccco3)c2=N)cc1C
[6]
  EC50: 18.8 µM (active)
[7]
  EC50: 17.9 µM (active)

## O=C(Cc1cccs1)Nc1nncs1
[8]
  IC50: 17 µM (active)

## CCOC(=O)c1c(N)sc(=S)c2c1CCC2
[8]
  IC50: > 50 µM (not active)
[9]
  IC50: > 66 µM (inactive)
[10]
  IC50: > 100 µM (active)
[11]
  IC50: > 66 µM (inactive)

## Cc1ccc(C(=O)/C=C\Nc2ccc(C)c(C)c2)cc1
[5]
  IC50: > 100 µM (active)

## CC12CNCC(C)(CNC1)C2O (stereo not given)
[6]
  EC50: > 20 µM (not active)
[7]
  EC50: > 20 µM (not active)

## O=C(Oc1oc(-c2ccco2)nc1/C=N/c1ccccc1)c1ccco1
[6]
  EC50: > 20 µM (not active)
[12]
  IC50: 1.32 µM (active)
[7]
  EC50: > 20 µM (not active)

## CSc1ccccc1NC(=O)c1ccccc1N(Cc1ccccc1)S(C)(=O)=O
[8]
  IC50: > 50 µM (not active)

## Cc1ccccc1NC(=O)c1[nH]cnc1C(=O)NCc1ccccc1
[13]
  IC50: > 31 µM (not active)
[14]
  IC50: 10.3 µM (active)

## CCOC(=O)/C=C(\C)Sc1cc(O)c2ccccc2c1O
[15]
  IC50: 10.5 µM (active)
[16]
  IC50: 5.24 µM (active)
[17]
  IC50: > 66.6 µM (inactive)
[9]
  IC50: > 66 µM (inactive)
[18]
  CC50: 22 µM (active)
[11]
  IC50: > 66 µM (inactive)
[19]
  IC50: 11.8 µM (active)

## CCc1sc(N)nc1-c1ccccc1
[5]
  IC50: > 100 µM (active)

## Cc1ccc(S(=O)(=O)N2CCN(C(=O)CSc3ncc(C(F)(F)F)cc3Cl)CC2)cc1
[20]
  IC50: > 50 µM (not active)

## Oc1ccc(O)c(Cc2nc3ccccc3[nH]2)c1
[19]
  IC50: 3.45 µM (active)

## COC1(OC)C(/C=C/c2ccc(Cl)cc2)C(C#N)(C#N)C1(OC)OC (stereo not given)
[21]
  EC50: 33.6 µM (active)
[22]
  AC50: 33.8 µM (active)
[4]
  IC50: 1.76 µM (active)
[23]
  EC50: 2.45 µM (active)
